Earlier results on one substance are cited in patent US20210350875A1, “HIGH THROUGHPUT METHOD AND SYSTEM FOR MAPPING INT[…] DIAGRAMS” (The Trustees of Princeton University, priority 2018, published 2021).

The series concerns phase separation. The following applies: positive control agent, 10 wells, FIG. 2B.

Turning to hexanediol, the “inhibition of phase separation” value is given as “fully inhibit phase separation”.
